Laboratory results published in patent US20170280720A1, “ARGININE […] INHIBITORS AND USES THEREOF” (EPIZYME, INC., priority 2014, published 2017).
Structures can show the parent of a compound that is named as a salt.

Each compound was assayed against T1, human PRMT1 (Homo sapiens, UniProt Q99873) (assay: PRMT1 biochemical assay (3H-SAM Flashplate, peptide substrate)). Conditions: read-out: PRMT1_ IC50.
T1 construct: GST-tagged PRMT1; made in house; host or cells: High Five insect cells (baculovirus, pFastBacI)
T1 sequence (Q99873 with tags, fused parts or gaps): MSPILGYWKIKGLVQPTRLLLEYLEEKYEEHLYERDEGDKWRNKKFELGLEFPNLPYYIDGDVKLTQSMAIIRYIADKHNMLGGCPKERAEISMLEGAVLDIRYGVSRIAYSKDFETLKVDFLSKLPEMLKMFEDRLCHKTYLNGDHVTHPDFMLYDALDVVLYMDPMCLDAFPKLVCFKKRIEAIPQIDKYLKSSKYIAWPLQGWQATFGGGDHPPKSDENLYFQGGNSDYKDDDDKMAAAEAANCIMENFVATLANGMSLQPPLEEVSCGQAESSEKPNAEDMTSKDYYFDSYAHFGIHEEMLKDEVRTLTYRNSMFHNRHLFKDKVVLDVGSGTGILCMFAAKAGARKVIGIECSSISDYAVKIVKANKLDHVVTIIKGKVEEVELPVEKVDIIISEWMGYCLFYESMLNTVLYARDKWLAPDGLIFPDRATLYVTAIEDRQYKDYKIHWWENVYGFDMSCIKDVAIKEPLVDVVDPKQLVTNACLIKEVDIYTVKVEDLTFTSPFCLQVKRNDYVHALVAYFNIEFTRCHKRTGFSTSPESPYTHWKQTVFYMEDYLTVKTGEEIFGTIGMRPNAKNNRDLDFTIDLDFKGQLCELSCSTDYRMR
Source text: S-adenosylmethionine (SAM), S-adenosylhomocysteine (SAH), bicine, Tween20, dimethylsulfoxide (DMSO), bovine skin gelatin (BSG), and Tris(2-carboxyethyl)phosphine hydrochloride solution (TCEP) were purchased from Sigma-Aldrich at the highest level of purity possible. ^3H-SAM was purchase from American Radiolabeled Chemicals with a specific activity of 80 Ci/mmol. 384-well streptavidin Flashplates were purchased from PerkinElmer.
Peptide representative of human histone H4 residues 36-50 was synthesized with an N-terminal linker-affinity tag motif and a C-terminal amide cap by 21st Century Biochemicals. The peptide was purified by high-performance liquid chromatography (HPLC) to greater than 95% purity and confirmed by liquid chromatography mass spectrometry (LC-MS). The sequence was Biot-Ahx-[…]-amide (SEQ ID NO.: 1).
Full-length human PRMT1 isoform 1 (NM_001536.5) transcript clone was amplified from an HEK 293 cDNA library, incorporating flanking 5′ sequence encoding a FLAG tag ([…]) (SEQ ID NO.: 2) fused directly to Met 1 of PRMT1. The amplified gene was subcloned into pFastBacI (Life Technologies) modified to encode an N-terminal GST tag and a TEV cleavage sequence ([…] […] […] […] QGGNS)(SEQ ID NO.: 3) fused to Asp of the Flag tag of PRMT1.
Recombinant baculovirus were generated according to Bac-to-Bac kit instructions (Life Technologies). Protein over-expression was accomplished by infecting exponentially growing High Five insect cell culture at 1.5×10^6 cell/ml with 1:100 ratio of virus. Infections were carried out at 27° C. for 48 hours, harvested by centrifugation, and stored at −80° C. for purification.
GST-tagged PRMT1 was eluted with 50 mM Tris, 2 mM glutathione, pH 7.8, dialysed in buffer A and concentrated to 1 mg/mL. The purity of recovered protein was 73%. Reference: Wasilko, D. J. and S. E. Lee: “TIPS: titerless infected-cells preservation and scale-up” Bioprocess J., 5 (2006), pp. 29-32.
General Procedure for PRMT1 Enzyme Assays on Peptide Substrates.
The assays were all performed in a buffer consisting of 20 mM Bicine (pH=7.6), 1 mM TCEP, 0.005% BSG, and 0.002% Tween 20, prepared on the day of use. Compounds in 100% DMSO (1 ul) were spotted into a polypropylene 384-well V-bottom plates (Greiner) using a Platemate Plus outfitted with a 384-channel head (Thermo Scientific). DMSO (1 ul) was added to Columns 11, 12, 23, 24, rows A-H for the maximum signal control and 1 ul of SAH, a known product and inhibitor of PRMT1, was added to columns 11, 12, 23, 24, rows I-P for the minimum signal control. A cocktail (40 ul) containing the PRMT1 enzyme was added by Multidrop Combi (Thermo-Fisher). The compounds were allowed to incubate with PRMT1 for 30 min at room temperature, then a cocktail (10 ul) containing SAM and peptide was added to initiate the reaction (final volume=51 ul). The final concentrations of the components were as follows: PRMT1 was 0.5 nM, ^3H-SAM was 200 nM, non-radiolabeled SAM was 1.5 uM, peptide was 20 nM, SAH in the minimum signal control wells was 1 mM, and the DMSO concentration was 2%. The assays were stopped by the addition of non-radiolabeled SAM (10 ul) to a final concentration of 300 uM, which dilutes the ^3H-SAM to a level where its incorporation into the peptide substrate is no longer detectable. 50 ul of the reaction in the 384-well polypropylene plate was then transferred to a 384-well Flashplate and the biotinylated peptides were allowed to bind to the streptavidin surface for at least 1 hour before being washed once with 0.1% Tween20 in a Biotek ELx405 plate washer. The plates were then read in a PerkinElmer TopCount plate reader to measure the quantity of ^3H-labeled peptide bound to the Flashplate surface, measured as disintegrations per minute (dpm) or alternatively, referred to as counts per minute (cpm).
Where dpm=disintegrations per minute, cmpd=signal in assay well, and min and max are the respective minimum and maximum signal controls. […]

Structure (SMILES)	IC50
CNCCN(C)Cc1cccc(-c2nc(NCc3cccnc3)c3cnn(C4CC4)c3n2)c1 [Compound 63]	262 nM
CNCCN(C)Cc1cccc(-c2cc(C(=O)NCCC(=O)NCC3CCOCC3)c3cnn(C(C)C)c3n2)c1 [Compound 64]	271 nM
CC(C)n1ncc2c(C(=O)NCc3ccccc3F)cc(-c3cccc(CN(C)CCN)c3)nc21 [Compound 65]	271 nM
CN(CCN)Cc1cccc(-c2nc(NCc3ccncc3)c3cnn(C4CC4)c3n2)c1 [Compound 66]	274 nM
CNCCN(C)Cc1cccc(-c2cc(-c3ccoc3)c3cnn(C(C)C)c3n2)c1 [Compound 67]	275 nM
CNCCN(C)Cc1cccc(-c2cc(N3CCOCC3)c3cnn(C(C)C)c3n2)c1 [Compound 68]	277 nM
CNCCN(C)Cc1cccc(-c2nc(NCc3ccncc3)c3cnn(C4CC4)c3n2)c1 [Compound 69]	282 nM
NCCNCc1ccc(-c2ccc3ncn(CC4CCNCC4)c3c2)cc1 [Compound 70]	295 nM
COC(=O)Nc1cc(-c2cccc(CN(C)CCN)c2)nc2c1cnn2C(C)C [Compound 71]	302 nM
CCNc1cc(-c2cccc(CN(C)CCNC)c2)nc2c1cnn2C(C)C [Compound 72]	303 nM
CNCCN(C)Cc1cccc(-c2ccc3cnn(C(C)C)c3n2)c1 [Compound 73]	306 nM
CNCCN(C)Cc1cccc(-c2cc(C#N)c3cnn(C(C)C)c3n2)c1 [Compound 74]	309 nM
CNCCN(C)Cc1cccc(-c2ccc3nc[nH]c3c2)c1 [Compound 75]	312 nM
CNCCN(C)Cc1cccc(-c2cc(NC3CCOCC3)c3cnn(C(C)C)c3n2)c1 [Compound 76]	317 nM
CCOC(=O)c1cc(-c2cccc(CN(C)CCNC)c2)nc2c1cnn2C(C)C [Compound 78]	337 nM
CNCCN(C)Cc1cccc(-c2cc(N3CCC3)c3cnn(C(C)C)c3n2)c1 [Compound 79]	341 nM
COc1ccccc1Cn1cnc2ccc(-c3ccc(CNCCN)cc3)cc21 [Compound 80]	345 nM
NCCNCc1ccc(-c2ccc3ncn(CC4CCCNC4)c3c2)cc1 (stereo not drawn) [Compound 81]	359 nM

Structure (SMILES)	IC50
Cc1ccccc1Cn1cnc2ccc(-c3ccc(CNCCN)cc3)cc21 [Compound 82]	375 nM
CNCCN(C)Cc1cccc(-c2cc(C(=O)NCCC(=O)NCc3ccn(C)n3)c3cnn(C(C)C)c3n2)c1 [Compound 83]	378 nM
CC(C)n1ncc2c(NC(=O)OCc3ccccc3)cc(-c3cccc(CN(C)CCN)c3)nc21 [Compound 84]	387 nM
CNCCN(C)Cc1cccc(-c2cc(NC(=O)NC(C)C)c3cnn(C(C)C)c3n2)c1 [Compound 85]	391 nM
CC(C)NC(=O)Nc1cc(-c2cccc(CN(C)CCN)c2)nc2c1cnn2C(C)C [Compound 86]	397 nM
CNCCN(C)Cc1cccc(-c2cc(C(=O)NC3CCOCC3)c3cnn(C4CC4)c3n2)c1 [Compound 87]	412 nM
CNCCN(C)Cc1cccc(-c2cc(C(=O)NCCCC(=O)NCc3ccn(C)n3)c3cnn(C(C)C)c3n2)c1 [Compound 88]	413 nM
CNCCN(C)Cc1cccc(-c2ccc3ncn(C)c3c2)c1 [Compound 92]	432 nM
CNCCN(C)Cc1cccc(-c2cc(N3CCC(C#N)CC3)c3cnn(C(C)C)c3n2)c1 [Compound 93]	433 nM
COc1cccc(CCn2cnc3ccc(-c4ccc(CNCCN)cc4)cc32)c1 [Compound 94]	446 nM
CNCCN(C)Cc1cccc(-c2cc(N(C)C3CC3)c3cnn(C(C)C)c3n2)c1 [Compound 95]	451 nM
CN(CCN)Cc1cccc(-c2nc(NC3CC3)c3cnn(C4CC4)c3n2)c1 [Compound 96]	451 nM
Cc1ccc(Cn2cnc3ccc(-c4ccc(CNCCN)cc4)cc32)cc1 [Compound 97]	452 nM
CNCCN(C)Cc1cccc(-c2cc(C(=O)NCc3ccccn3)c3cnn(C(C)C)c3n2)c1 [Compound 98]	456 nM
CNCCN(C)Cc1cccc(-c2nc(N3CCOCC3)c3cnn(C(C)C)c3n2)c1 [Compound 99]	457 nM
CNCCN(C)Cc1cccc(-c2ccc3cnn(C(C)C)c3c2)c1 [Compound 100]	477 nM
CC(C)n1ncc2c(NC3CCOCC3)cc(-c3cccc(CN(C)CCN)c3)nc21 [Compound 101]	488 nM

Next, values leading:

IC50	Structure (SMILES)
26.7 nM	CC(C)n1ncc2c(C(=O)N(C)[C@@H](C)c3ccccc3)cc(-c3cccc(CN(C)CCN)c3)cc21 [Compound 3]
34.8 nM	CNCCN(C)Cc1cccc(-c2cnc3c(c2)c(C2CC2)nn3CC2CCOCC2)c1 [Compound 4]
36.9 nM	CN(CCN)Cc1cccc(-c2nc(NCc3cn4ccsc4n3)c3cnn(C4CC4)c3n2)c1 [Compound 5]
36.9 nM	CNCCN(C)Cc1cccc(-c2nc(NCc3cn4ccsc4n3)c3cnn(C4CC4)c3n2)c1 [Compound 6]
45.2 nM	Cc1c(C(=O)NCc2ccccc2)cc(-c2ccc(CN(C)CCN)cc2)c2cn[nH]c12 [Compound 7]
47 nM	COc1cccc(Cn2cnc3ccc(-c4ccc(CN(C)CCN)cc4)cc32)c1 [Compound 8]
47.3 nM	CNCCN(C)Cc1cccc(-c2nc(NCc3ccccn3)c3cnn(C4CC4)c3n2)c1 [Compound 9]
212 nM	CCC(O)c1cc(-c2cccc(CN(C)CCNC)c2)nc2c1cnn2C(C)C (stereo not drawn) [Compound 48]
213 nM	CNCCN(C)Cc1cccc(-c2cc(-c3cnn(C)c3)c3cnn(C(C)C)c3n2)c1 [Compound 49, N1-(3-(1-isopropyl-4-(1-methyl-1H-pyrazol-4-yl)-1H-pyrazolo[3,4-b]pyridin-6-yl)benzyl)-N1,N2-dimethylethane-1,2-diamine]
223 nM	CNCCN(C)Cc1cccc(-c2cc(N3CCC(C(F)(F)F)CC3)c3cnn(C(C)C)c3n2)c1 [Compound 50]
226 nM	CNCCN(C)Cc1cccc(-c2cc(N3CCC(OC)CC3)c3cnn(C(C)C)c3n2)c1 [Compound 51]
226 nM	Cc1c(CNc2nc(-c3cccc(CN(C)CCN)c3)nc3c2cnn3C2CC2)cnn1C [Compound 52]
228 nM	CCOc1cc(-c2cccc(CN(C)CCNC)c2)nc2c1cnn2C(C)C [Compound 53]
231 nM	CC(C)n1ncc2c(C(=O)NCc3ccccc3Cl)cc(-c3cccc(CN(C)CCN)c3)nc21 [Compound 54]
236 nM	CNCCN(C)Cc1cccc(-c2cc(N3CCCC(C#N)C3)c3cnn(C(C)C)c3n2)c1 (stereo not drawn) [Compound 55]
238 nM	CNCCN(C)Cc1cccc(-c2cc(C(=O)N3CCCCC3)c3cnn(C(C)C)c3n2)c1 [Compound 56]
238 nM	CNCCN(C)Cc1cccc(-c2nc(NCc3cnn(C)c3C)c3cnn(C4CC4)c3n2)c1 [Compound 57]
239 nM	CNCCN(C)Cc1cccc(-c2cc(NC3COC3)c3cnn(C(C)C)c3n2)c1 [Compound 58]
244 nM	CC(C)n1cc2c(Cl)cc(-c3cccc(CN(C)CCN)c3)nc2n1 [Compound 59]
248 nM	CNCCN(C)Cc1cccc(-c2cc(C(=O)NCCCC(=O)NCC3CCOCC3)c3cnn(C(C)C)c3n2)c1 [Compound 60]
249 nM	CC(C)n1ncc2c(N3CCOCC3)cc(-c3cccc(CN(C)CCN)c3)nc21 [Compound 61, N1-(3-(1-isopropyl-4-morpholino-1H-pyrazolo[3,4-b]pyridin-6-yl)benzyl)-N1-methylethane-1,2-diamine]
258 nM	CNCCN(C)Cc1cccc(-c2cc(N3CCOCC3)n3ncc(C(C)C)c3n2)c1 [Compound 62, N1-(3-(3-isopropyl-7-morpholinopyrazolo[1,5-a]pyrimidin-5-yl)benzyl)-N1,N2-dimethylethane-1,2-diamine formate]
